In patent publication US11059778B2, “Cannabinoid receptor CB2 ligand 4-(aminomethyl)-N, N-dialkylanilines” (UNIVERSITY OF PITTSBURGH—OF THE COMMONWEALTH SYSTEM OF …, priority 2015, dated 2021):
Entries after “also recorded” stand apart in the source; their conditions may differ.

What was measured:
[1] = target: T1, human CB2 receptors (Homo sapiens, UniProt P34972); assay: [3H]CP-55,940 radioligand competition binding assay, CB2; details: for Ki: CHO cell membranes, [3H]CP-55,940 displacement
T1 construct: expressed in transfected cells
T1 sequence (P34972 whole entry): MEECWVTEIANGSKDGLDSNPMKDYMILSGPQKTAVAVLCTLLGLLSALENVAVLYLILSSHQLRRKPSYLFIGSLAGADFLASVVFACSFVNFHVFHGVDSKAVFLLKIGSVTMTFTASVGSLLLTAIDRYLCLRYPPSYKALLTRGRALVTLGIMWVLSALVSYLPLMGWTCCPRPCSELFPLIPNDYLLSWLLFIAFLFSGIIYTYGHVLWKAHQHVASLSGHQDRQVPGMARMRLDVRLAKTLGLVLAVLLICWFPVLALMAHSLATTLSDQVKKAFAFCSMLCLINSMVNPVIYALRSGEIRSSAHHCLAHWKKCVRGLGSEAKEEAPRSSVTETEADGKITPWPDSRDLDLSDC
Experimental: Binding assay. The bioassay is carried out using the Perkin Elmer 96-well Top Counter. This bioassay is also known as a competition binding assay and the biological evaluation is to determine the CB receptor binding affinity (Ki) of the screened ligands by displacing [^3H]-CP-55940 (or other radioligands). The brief procedure is given below.
Perkin Elmer 96-well TopCounter is used at PMLSC and in our laboratory to determine the CB receptor binding affinity (Ki) of the in-silico screened ligands by displacing [^3H]-CP-55,940 (or other radioligands). In competition binding experiments, the tested compound dilutions are carried out in triplicate in TME buffer (25 mM Tris, 5 mM MgCl2, 1 mM EDTA) containing 0.1% (w/v) fatty acid free bovine serum albumin (BSA), pH 7.4. Various concentrations of the tested compound are added in the same volume to 0.5 nM [^3H]CP-55,940. TME buffer and cell membrane preparations expressing CB receptors (2.5 μg per well) are added to a final volume of 200 μL. For the saturation binding experiments, varying concentrations of [^3H]CP-55,940 (0.05-1.5 nM) with or without 2 μM of unlabeled ligands (CP-55,940 or WIN-55,212-2) are incubated with the receptor membrane preparations to determine Kd and nonspecific binding. After the binding suspensions are incubated at 30° C. for 1 hr, the reaction is terminated by rapid filtration through microfiltration plates coated with 0.5% polyethylenimine (Unifilter GF/B filterplate, PerkinElmer) followed by 5 washes with ice cold TME buffer containing 0.5% BSA on a Packard Filtermate Harvester (PerkinElmer). The plates are then dried overnight and 30 μl MicroScint 0 scintillation cocktail are added to each well of the dried filter plates. Then the bound radioactivity is counted using a Perkin Elmer 96-well TopCounter. The Ki is calculated by using nonlinear regression analysis (Prism 5; GraphPad Software Inc., San Diego, Calif.), with the Kd values for [^3H]CP-55,940 determined from saturation binding experiments. This assay is used for determining binding affinity parameters (Ki) of ligand-receptor interactions for the CB receptor.
The affinities of the synthesized ligands were determined in radioligand binding studies at human CB1 and CB2 receptors using [3H](—)-cis-3-[2-hydroxy-4-(1,1 dimethylheptyl)phenyl]-trans-4-(3-hydroxypropyl) cyclohexanol (CP55,940) as a CB receptor radioligand. As a source for human CB1 and CB2 receptors, membrane preparations of Chinese hamster ovary (CHO) cells stably expressing the respective receptor subtype were utilized (50 μg of protein/vial). CB2 selective ligand SR144528 (CB2 inverse agonist) and CB1 ligand SR141716 (CB1 inverse agonist) were used as positive controls, respectively, along with the tested compounds in bioassays experiments. Only compounds with high CB2 receptor binding potency was chosen to carry out the CB1 binding assay. CB ligand competition binding assay was carried out as described previously in Gertsch, J., et al., Beta-caryophyllene is a dietary cannabinoid. Proc Natl Acad Sci USA 2008, 105 (26), 9099-104. Briefly, non-radioactive (or cold) ligands (synthesized derivatives and reference ligands) were diluted in a binding buffer (50 mM Tris-HCl (pH 7.4), 5 mM MgC12, 2.5 mM EGTA, and 0.1% (w/v) fatty acid free BSA), supplemented with 10% dimethyl sulfoxide and 0.4% methyl cellulose. Each assay plate well contained a total of 200 μL of reaction mixture composed of 5 μg of CB1 (or 2.5 μg CB2) membrane protein, labeled [3H]-CP-55,940 ligand at a final concentration of 2.5 nM, and the unlabeled ligand at its varying dilutions as stated above. Plates were incubated at 30° C. for 1 hour with gentle shaking.
The reaction was terminated by rapid filtration through Unifilter GF/B filter plates using a Unifilter Cell Harvester (PerkinElmer). After the plate was allowed to dry overnight, 30 μL MicroScint-0 cocktail (PerkinElmer) was added to each well, and the radioactivity was counted using a PerkinElmer TopCounter. […]

[2] = system: RANKL-induced osteoclast differentiation of C57BL/6 mouse bone marrow cells; assay: In-vitro osteoclast formation assay (RANKL-induced, TRAP staining); type: cell-based; details: for effect on RANKL-induced osteoclast formation (in words): RANKL 100 ng/mL, M-CSF 30 ng/mL, concentration series up to 10 μM, FIG. 5; for inhibition at 10 µM: Mus musculus, Osteoclast, read-out: inhibition rates of osteoclast formation
Experimental: FIGS. 5A and 5B relate to […]. Anti-osteoclastogenesis activity of the synthesized CB2 ligands. […] FIG. 5B: BM cells were seeded at a density of 2×10^5 cells/well in 96-well plates and treated with or without RANKL (100 ng/mL) and M-CSF (30 ng/mL). CB2 compounds were added at the indicated concentrations for 10 days and stained for TRAP expression. Data is the mean of three experiments carried out in triplicates. (B) Microscopic photographs of cells for compound 15 (magnification 100×).
Bone marrow (BM) cells were obtained from the tibia and femur of 4- to 6-week old C57BL/6 mice. To examine the effects of our selective CB2 ligands, BM cells were seeded at 2×10^5 cells/well in 96-well plates in 100 μIL/well Alpha-MEM media (Gibco Laboratories, Grand Island, N.Y.) containing 15% fetal bovine serum (FBS) (Gibco Laboratories, Grand Island, N.Y.), 30 ng/mL M-CSF (R&D Systems, USA), and 100 ng/mL RANKL (ProsPec, East Brunswick, N.J.). Plates were cultured for 7-10 days. Half media was changed every third day with or without CB2 ligands. At the end of the experiment, cells were fixed and stained with tartrate-resistant acid […] (TRAP) (Sigma-Aldrich, USA), according to manufacturer's protocol. TRAP-positive cells with ≥3 nuclei were counted as osteoclasts ((a) Feng, R., et al., SDX-308, a nonsteroidal anti-inflammatory agent, inhibits NF-kappaB activity, resulting in strong inhibition of osteoclast formation/activity and multiple myeloma cell growth. Blood 2007, 109 (5), 2130-8; (b) Yu, M., et al., Curcumol suppresses RANKL-induced osteoclast formation by attenuating the JNK signaling pathway. Biochem Biophys Res Commun 2014, 447 (2), 364-70; (c) Feng, R., et al., KD5170, a novel mercaptoketone-based histone deacetylase inhibitor, exerts antimyeloma effects by DNA damage and mitochondrial signaling. Mol Cancer Ther 2008, 7 (6), 1494-505.).

Structure (SMILES) | SI: selectivity index for CB2, calculated as Ki(CB1)/Ki(CB2) ratio [1] | Ki [1] | effect on RANKL-induced osteoclast formation (in words) [2] | inhibition at 10 µM [2]
CCN(CC)c1ccc(CN(Cc2cc(OC)c(OC)c(OC)c2)C(=O)c2cccs2)cc1 [Compound 11, N-(4-(diethylamino)benzyl)-N-(3,4,5-trimethoxybenzyl)thiophene-2-carboxamide] | 31 | 107 nM | induction of osteoclast formation at higher doses; also recorded: low effect in inducing the osteoclast formation at higher doses | –
CCN(CC)c1ccc(CN(Cc2cc(OC)c(OC)c(OC)c2)S(=O)(=O)/C=C/c2ccccc2)cc1 [Compound 15, (E)-N-(4-(diethylamino)benzyl)-2-phenyl-N-(3,4,5-trimethoxybenzyl)ethene-1-sulfonamidebenzenesulfonamide] | 145 | 138 nM | concentration-dependent inhibition of osteoclast formation; also recorded: inhibited the RANKL-induced osteoclast differentiation in a dose-dependent manner | > 95%
CCN(CC)c1ccc(CN(Cc2cc(OC)c(OC)c(OC)c2)S(=O)(=O)c2ccc(C=O)cc2)cc1 [Compound 18, N-(4-(diethylamino)benzyl)-4-formyl-N-(3,4,5-trimethoxybenzyl)benzenesulfonamide] | 9 | 242 nM | concentration-dependent inhibition of osteoclast formation; also recorded: inhibited the RANKL-induced osteoclast differentiation in a dose-dependent manner | > 95%
